Data reported in patent US20080242688A1, “Method 741” (ASTRAZENECA AB, priority 2007, published 2008).
Where “and” joins values, the source holds several entries; their conditions need not be identical. Equal entries are not always repeated. Where two headings read alike, the source gives them in different places.

Columns and labels:
[1] = system: rats; assay: Nicotine drug discrimination; format: in vivo, rat
[2] = system: guinea pigs; assay: Cardiac repolarisation in the anesthetised guinea pig; format: in vivo
Method: Effects of AZD0328 on ventricular repolarisation and intracardiac conduction were investigated in 6 anesthetised and ventilated guinea pigs (Table 3). For the electrophysiological characterisation, monophasic action potentia MAP duration at 90% repolarisation (MAPD90), ventricular conduction velocity (MAP rise time), and atrioventricular (AV) conduction time were recorded during cardiac pacing. AZD0328 had dose-dependent effects on the electrophysiological activities in the guinea pig heart. At the highest dose, resulting in a total plasma concentration of 8.5 μM, MAPD90 and AV conduction time were prolonged by 20% and 13%, respectively. It is concluded that AZD0328 delayed ventricular repolarisation in the anesthetised guinea pig by 10% at a total plasma concentration of 2.4 μM.

[3] = system: FFX Sprague Dawley rats; assay: Hippocampal long-term potentiation in vivo; set-up: species or system rat; conditions: 0.3 mg/kg
Method: AZD0328 reversed a deficit in hippocampal long-term potentiation (LTP) in FFX Sprague Dawley rats (Table 2). […] 0.3 mg/kg of AZD0328 was ineffective in this test.

[4] = Single dose PK/TK, rhesus monkey; format: in vivo; conditions: for half-life: read-out: T½ (converted); for Vd: read-out: Vss
Method: Pharmacokinetic studies in rats and monkeys were used to estimate the plasma concentrations associated with doses at which AZD0328 improved cognitive performance in these species. For example, in rhesus monkeys, two studies were conducted to determine the pharmacokinetic profile of AZD0328 after administration of 0.048 and 1.7 mg per kg AZD0328. […] We thus estimated the peak plasma concentrations in monkeys that received AZD0328 at 0.00048-0.016 mg per kg to be 0.6-18 nM. Similar studies and calculations in rats, when extended to mice, led us to estimate plasma concentrations at 0.001-0.1 mg per kg body weight to be 0.29-100 nM in these species.
(§1) This section provides a summary of the pharmacokinetic and metabolism properties of AZD0328 derived from in vivo studies. […] The derived PK/TK parameters from these studies are presented in Table 4 for single dose studies (DMR4, 0619LR, 20030191PCR, DMO16, DMB10, DMW12, 50190, 0190DD and 03.330/1), and are presented in Table 5 multiple dose PK/TK studies (DMR4, 0612AR, DMB15, 50190, 0190DD and 0295AD).

[5] = biological target: human recombinant α7 receptor (Homo sapiens, UniProt P36544); assay: [3H]-AZ11637326 binding, α7-HEK; set-up: expressed in transfected cells
[6] = Respiratory effects, whole body plethysmography; format: in vivo; conditions: plasma; rat, oral; read-out: NOAEL on ventilatory function, total Cmax
Method: Effects of single oral doses of AZD0328 on mean, systolic and diastolic arterial blood pressures, heart rate, body temperature, locomotor activity and respiratory parameters were evaluated in rats by combining whole body plethysmography with telemetry (Table 3). […] The degree of hypertension, however, was similar at the 3 highest doses, which partly can be explained by the high individual variation in plasma exposure at each dose level. The effect on heart rate was, on the other hand, dose-related.
Effects of AZD0328 on respiratory function were evaluated in the combined cardiovascular/respiratory study in rats (Table 3). Respiratory rate, tidal volume, inspiratory and expiratory times, and peak inspiratory and expiratory flows were measured […].

[7] = Single dose PK/TK, rat; format: in vivo; conditions: for AUC / Cmax / Tmax: in vivo
Source text: as §1

[8] = Multiple dose PK/TK, rabbit; format: in vivo; conditions: day 18; for AUC / Cmax / Tmax: female, New Zealand White, in vivo, sc
Source text: as §1

[9] = system: human hepatocytes; assay: Human hepatocyte incubations; format: in vitro ADME; conditions: four separate batches of human hepatocytes
Method: Pyridinyl methylation of AZD0328 was a unique polar metabolite (M2) observed in dog hepatocytes. Other minor hydroxylation/oxidation and glucuronide conjugation products were detected in monkey, dog, rat, and guinea pig hepatocyte incubations and mini-pig hepatic microsome incubations. […] Analysis of plasma and urine samples from either orally or iv dosed rats confirmed N-oxide product of AZD0328 was a main product in the excretion and circulation. The percentage of AZD0328 N-oxide in the plasma from male rats was much higher than from females.

[10] = highest dose, total plasma concentration 8.5 μM
[11] = both sexes, in vivo, rhesus monkey 2M+2F, 03.330/1, iv 1.15 mg/kg (5.32 μmol/kg)
[12] = both sexes, in vivo, rhesus monkey 2M+2F, 03.330/1, iv 3.85 mg/kg (17.8 μmol/kg)
[13] = both sexes, plasma, im, rhesus monkey 2F+2M, A7AGBU1006, intramuscular 1.7 mg/kg (8 μmol/kg)
[14] = both sexes, plasma, rhesus monkey 2M+2F, 03.330/1, iv 0.385 mg/kg (1.78 μmol/kg)
[15] = male, plasma, im, rhesus monkey 3M, A7AGBU1010, intramuscular 0.048 mg/kg (0.22 μmol/kg)
[16] = both sexes, rat 1M+1F, DMR4, single oral 2.16 mg/kg (10 μmol/kg)
[17] = female, rat 2F, 0619LR, single oral 149 mg/kg (690 μmol/kg)
[18] = male, rat 3M, 0619LR, single oral 201 mg/kg (930 μmol/kg)
[19] = male, rat 4M, 20030191PCR, single oral 1.08 mg/kg (5 μmol/kg)
[20] = male, rat 4M, 20030191PCR, single oral 32.4 mg/kg (150 μmol/kg)
[21] = male, rat 4M, 20030191PCR, single oral 54.1 mg/kg (250 μmol/kg)
[22] = male, rat 4M, 20030191PCR, single oral 86.5 mg/kg (400 μmol/kg)
[23] = rabbit 2F, DMB15, subcutaneous 1.15 mg/kg (3 μmol/kg)
[24] = rabbit 3F, DMB15, subcutaneous 0.115 mg/kg (0.3 μmol/kg)
[25] = rabbit 3F, DMB15, subcutaneous 0.269 mg/kg (0.7 μmol/kg)
[26] = rabbit 3F, DMB15, subcutaneous 0.384 mg/kg (1 μmol/kg)
[27] = rabbit 3F, DMB15, subcutaneous 3.84 mg/kg (10 μmol/kg)

Sequence of human recombinant α7 receptor (P36544 23-502): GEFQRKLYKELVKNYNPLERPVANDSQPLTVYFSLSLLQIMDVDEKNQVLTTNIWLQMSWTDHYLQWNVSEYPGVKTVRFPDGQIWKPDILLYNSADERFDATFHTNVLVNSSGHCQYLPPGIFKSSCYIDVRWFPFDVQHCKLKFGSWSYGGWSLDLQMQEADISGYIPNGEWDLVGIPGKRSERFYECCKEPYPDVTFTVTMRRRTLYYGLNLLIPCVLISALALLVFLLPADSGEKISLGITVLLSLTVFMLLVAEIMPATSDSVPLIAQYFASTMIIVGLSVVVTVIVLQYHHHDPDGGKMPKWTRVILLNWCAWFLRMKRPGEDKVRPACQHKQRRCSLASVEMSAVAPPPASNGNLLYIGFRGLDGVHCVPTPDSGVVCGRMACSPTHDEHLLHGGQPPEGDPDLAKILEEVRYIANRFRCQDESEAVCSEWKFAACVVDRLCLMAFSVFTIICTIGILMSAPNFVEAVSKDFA

c1cnc2c(c1)C[C@@]1(CN3CCC1CC3)O2 [AZD0328, (R)-Spiro[1-azabicyclo[2.2.2]octane-3,2′(3′H)-furo[2,3-b]pyridine]]
dose up to which nicotine-like stimulus properties were lacking ([1]; rat, sc): properties at doses up to 5.4 mg/kg | nicotine-like stimulus effects ([1]; rats trained to discriminate 0.3 mg/kg nicotine, sc): lack of nicotine-like stimulus properties | rate of responding ([1]; rats, doses up to 30 mg/kg sc): severely depressed the rate of responding | total plasma concentration ([2]; highest dose, iv cumulative bolus): 8.5 µM | prolongation of AV conduction time [2, 10]: 13% | prolongation of MAPD90 [2, 10]: 20% | NOAEL, guinea pig MAP assay ([2]; in vivo): 1 µM | effect on hippocampal LTP [3]: ineffective | half-life ([4]; both sexes, in vivo, rhesus monkey 2M+2F, 03.330/1, iv 0.385 mg/kg (1.78 μmol/kg)): 1.76 ± 0.43 h | clearance [4, 11]: 14.2 mL/min/kg | half-life [4, 11]: 1.96 ± 0.63 h | Vd [4, 11]: 2.52 ± 1.64 L/kg | clearance [4, 12]: 14.5 mL/min/kg | half-life [4, 12]: 2.14 ± 0.39 h | Vd [4, 12]: 2.85 ± 1.6 L/kg | AUC [4, 13]: 634 ± 81 ng·h/mL | Tmax [4, 13]: 0.25 h | Cmax ([4]; both sexes, plasma, im, rhesus monkey 2F+2M, A7AGBU1006, intramuscular 1.7 mg/kg (8 μmol/kg), read-out: Cmax): 430 ng/mL and 1.99 µM | half-life [4, 13]: 0.97 ± 0.12 h | clearance [4, 14]: 21 mL/min/kg | Vd [4, 14]: 3.29 ± 2.32 L/kg | Tmax [4, 15]: 0.25 h | Cmax ([4]; male, plasma, im, rhesus monkey 3M, A7AGBU1010, intramuscular 0.048 mg/kg (0.22 μmol/kg), read-out: Cmax): 16.1 ng/mL and 74.6 nM | half-life [4, 15]: 0.85 ± 0.23 h | estimated peak plasma concentrations ([4]; monkeys, 0.00048-0.016 mg per kg): 0.6 to 18 nM | Cmax ([4]; rhesus monkey, plasma, intramuscular, 0.016 mg/kg, rhesus monkeys, read-out: Cmax at NOAEL for behavioral side effects): 18 nM | estimated free plasma Cmax ([4]; rhesus monkeys, 0.016 mg/kg (NOAEL)): 18 nM | Ki [5]: 6.4 nM | Cmax [6]: 31200 nM | AUC [7, 16]: 699 ng·h/mL to 861 ng·h/mL and 3.23 µM·h to 3.98 µM·h | Cmax [7, 16]: 251 ng/mL to 344 ng/mL and 1.16 µM to 1.59 µM | Tmax [7, 16]: 0.5 to 1 h | AUC [7, 17]: 76600 ng·h/mL and 354 µM·h | Cmax [7, 17]: 4740 ng/mL to 11600 ng/mL and 21.9 µM | AUC [7, 18]: 49800 ng·h/mL and 230 µM·h | Cmax [7, 18]: 15.9 µM and 3440 ng/mL | AUC [7, 19]: 441 ng·h/mL and 2.04 µM·h | Cmax [7, 19]: 99.9 ng/mL and 462 nM | Tmax [7, 19]: 1 h | AUC [7, 20]: 26600 ng·h/mL and 123 µM·h | Cmax [7, 20]: 2570 ng/mL and 11.9 µM | Tmax [7, 20]: 1 h | AUC [7, 21]: 37900 ng·h/mL and 175 µM·h | Cmax [7, 21]: 4500 ng/mL and 20.8 µM | Tmax [7, 21]: 1 h | AUC [7, 22]: 90000 ng·h/mL and 416 µM·h | Cmax [7, 22]: 6750 ng/mL and 31.2 µM | Tmax [7, 22]: 1 h | F ([7]; rat 1M+1F, DMR4, oral 2.16 mg/kg vs iv 1.08 mg/kg): 78-84% | plasma concentrations ([7]; rat, 1 mg per kg (minimum effective dose in fimbria fornix model)): 290 to 1400 nM | estimated plasma concentrations ([7]; rats, extended to mice, 0.001-0.1 mg per kg): 0.29 to 100 nM | AUC [8, 23]: 636 ng·h/mL to 846 ng·h/mL and 2.9 µM·h to 3.9 µM·h | Cmax [8, 23]: 224 ng/mL to 296 ng/mL and 1.04 µM to 1.37 µM | Tmax [8, 23]: 0.3 to 1 h | AUC [8, 24]: 50.2 ng·h/mL and 0.205 µM·h | Cmax [8, 24]: 24.7 ng/mL and 111 nM | Tmax [8, 24]: 0.317 to 0.97 h | AUC [8, 25]: 0.872 µM·h | Cmax [8, 25]: 138 ng/mL and 583 nM | Tmax [8, 25]: 0.217 to 0.483 h | AUC [8, 26]: 232 ng·h/mL and 1.01 µM·h | Cmax [8, 26]: 78.1 ng/mL and 317 nM | Tmax [8, 26]: 0.25 to 2.02 h | AUC [8, 27]: 2510 ng·h/mL and 11.6 µM·h | Cmax [8, 27]: 677 ng/mL and 3.13 µM | Tmax [8, 27]: 0.483 to 2.18 h | AUC/dose [8, 23]: 0.212-0.282 | AUC/dose [8, 24]: 0.148 ± 0.038 | AUC/dose [8, 25]: 0.270 ± 0.106 | AUC/dose [8, 27]: 0.251 ± 0.129 | metabolites in human hepatocyte incubations [9]: no metabolites were detected
